Laboratory results from patent publication US5478816A, “Liquid vitamin formulations containing vitamin D esters” (Bristol-Myers Squibb Company, priority 1993, dated 1995).
Values joined by “and” are separate entries in the source; they are usually repeats but may differ in a detail not shown here. Identical values can stand only once.

Assay: Short-term stability of vitamin D3 and vitamin D3 palmitate in liquid vitamin formulations at 40° C. (HPLC assay)
Type: physicochemical
Conditions: for Vitamin D content on storage: 40° C.
Protocol: In addition to the above, the vitamin formulation contains flavorants, stabilizer of vitamins, and about 1.0% polysorbate 80 as surfactant. As appreciated by the skilled artisan, appropriate overages of vitamins are included in order to assure meeting the label claims. The example composition contains 1.86:1 ratio by weight of glycerine to water. The pH is 5.0 which is adjusted by using an appropriate ratio of ascorbic acid to sodium ascorbate.
Vitamin D was analyzed by a HPLC assay as described by Matthew G. Sliva, et al., "Reversed-Phase Liquid Chromatographic Determination of Vitamin D in Infant Formulas and Enteral Nutritionals," J Assoc. Off. Anal. Chem., 75, 566, 1992, except that saponification conditions of 70° C. for 40 minutes were employed.
Stability of vitamins D3 and D3 palmitate were compared in various vitamin formulations containing different amounts of water and glycerin and at different pHs. The other ingredients and method of pH adjustment were as described in Example 1. The results are in Tables 2-5. Each batch number represents a different liquid vitamin formulation. The amount of glycerin varied between 650 and 850 mg/ml, depending upon the amount of water. "Vit" represents vitamin, "Desc." represents description,"Vit D3" represents vitamin D3, and "Vit D3P" or "D3 P" represents vitamin D3 palmitate. Table 1 lists the half-life (T50) values, i.e., time to degrade to 50% of the starting concentration of vitamins D3 and D3 palmitate at 40° C., These T50 values were calculated by fitting the data to first order degradation rate.

C=C1CC[C@H](OC(=O)CCCCCCCCCCCCCCC)C/C1=C/C=C1\CCC[C@]2(C)[C@@H]([C@H](C)CCCC(C)C)CC[C@@H]12 [Vitamin D3 P, vitamin D3 palmitate]
half-life (liquid vitamin formulation, pH 5.6, Time in Weeks for 50% Degradation (T50)): 113 days | Vitamin D content on storage (pH 3.2, 252 mg/ml water, age 0 weeks, Batch #1 (D3), #2 (D3 P)): 810 IU/ml | Vitamin D content on storage (pH 3.2, 252 mg/ml water, age 2 weeks, Batch #1 (D3), #2 (D3 P)): 715 IU/ml and 717 IU/ml | Vitamin D content on storage (pH 3.2, 252 mg/ml water, age 4 weeks, Batch #1 (D3), #2 (D3 P)): 668 IU/ml | Vitamin D content on storage (pH 3.2, 252 mg/ml water, age 6 weeks, Batch #1 (D3), #2 (D3 P)): 598 IU/ml and 612 IU/ml | Vitamin D content on storage (pH 3.2, 252 mg/ml water, age 8 weeks, Batch #1 (D3), #2 (D3 P)): 544 IU/ml and 574 IU/ml | Vitamin D content on storage (pH 3.2, 252 mg/ml water, age 12 weeks, Batch #1 (D3), #2 (D3 P)): 471 IU/ml and 443 IU/ml | Vitamin D content on storage (pH 3.2, 252 mg/ml water, age 16 weeks, Batch #1 (D3), #2 (D3 P)): 397 IU/ml and 385 IU/ml | Vitamin D content on storage (pH 3.2, 390 mg/ml water, age 0 weeks, Batch #3 (D3), #4 (D3 P)): 430 IU/ml and 425 IU/ml | Vitamin D content on storage (pH 3.2, 390 mg/ml water, age 1 week, Batch #3 (D3), #4 (D3 P)): 404 IU/ml and 405 IU/ml | Vitamin D content on storage (pH 3.2, 390 mg/ml water, age 2 weeks, Batch #3 (D3), #4 (D3 P)): 405 IU/ml and 403 IU/ml | Vitamin D content on storage (pH 3.2, 390 mg/ml water, age 4 weeks, Batch #3 (D3), #4 (D3 P)): 394 IU/ml and 397 IU/ml | Vitamin D content on storage (pH 3.2, 390 mg/ml water, age 8 weeks, Batch #3 (D3), #4 (D3 P)): 384 IU/ml and 381 IU/ml | Vitamin D content on storage (pH 3.2, 390 mg/ml water, age 12 weeks, Batch #3 (D3), #4 (D3 P)): 374 IU/ml and 370 IU/ml | Vitamin D content on storage (pH 3.2, 390 mg/ml water, age 16 weeks, Batch #3 (D3), #4 (D3 P)): 366 IU/ml and 362 IU/ml | Vitamin D content on storage (pH 4.2, 252 mg/ml water, age 0 weeks, Batch #5 (D3), #6 (D3 P)): 408 IU/ml and 405 IU/ml | Vitamin D content on storage (pH 4.2, 252 mg/ml water, age 1 week, Batch #5 (D3), #6 (D3 P)): 391 IU/ml and 386 IU/ml | Vitamin D content on storage (pH 4.2, 252 mg/ml water, age 2 weeks, Batch #5 (D3), #6 (D3 P)): 368 IU/ml and 371 IU/ml | Vitamin D content on storage (pH 4.2, 252 mg/ml water, age 4 weeks, Batch #5 (D3), #6 (D3 P)): 314 IU/ml and 316 IU/ml | Vitamin D content on storage (pH 4.2, 252 mg/ml water, age 8 weeks, Batch #5 (D3), #6 (D3 P)): 234 IU/ml | Vitamin D content on storage (pH 4.2, 252 mg/ml water, age 12 weeks, Batch #5 (D3), #6 (D3 P)): 145 IU/ml and 146 IU/ml | Vitamin D content on storage (pH 4.2, 252 mg/ml water, age 16 weeks, Batch #5 (D3), #6 (D3 P)): 145 IU/ml and 144 IU/ml | Vitamin D content on storage (pH 4.2, 390 mg/ml water, age 0 weeks, Batch #7 (D3), #8 (D3 P)): 414 IU/ml and 418 IU/ml | Vitamin D content on storage (pH 4.2, 390 mg/ml water, age 1 week, Batch #7 (D3), #8 (D3 P)): 397 IU/ml and 395 IU/ml | Vitamin D content on storage (pH 4.2, 390 mg/ml water, age 2 weeks, Batch #7 (D3), #8 (D3 P)): 395 IU/ml and 399 IU/ml | Vitamin D content on storage (pH 4.2, 390 mg/ml water, age 4 weeks, Batch #7 (D3), #8 (D3 P)): 379 IU/ml and 371 IU/ml | Vitamin D content on storage (pH 4.2, 390 mg/ml water, age 8 weeks, Batch #7 (D3), #8 (D3 P)): 353 IU/ml and 347 IU/ml | Vitamin D content on storage (pH 4.2, 390 mg/ml water, age 12 weeks, Batch #7 (D3), #8 (D3 P)): 339 IU/ml and 328 IU/ml | Vitamin D content on storage (pH 4.2, 390 mg/ml water, age 16 weeks, Batch #7 (D3), #8 (D3 P)): 319 IU/ml and 315 IU/ml | Vitamin D content on storage (pH 5.0, 252 mg/ml water, age 0 weeks, Batch #9 (D3), #10 (D3 P)): 426 IU/ml and 424 IU/ml | Vitamin D content on storage (pH 5.0, 252 mg/ml water, age 1 week, Batch #9 (D3), #10 (D3 P)): 394 IU/ml and 397 IU/ml | Vitamin D content on storage (pH 5.0, 252 mg/ml water, age 2 weeks, Batch #9 (D3), #10 (D3 P)): 363 IU/ml | Vitamin D content on storage (pH 5.0, 252 mg/ml water, age 4 weeks, Batch #9 (D3), #10 (D3 P)): 335 IU/ml and 329 IU/ml | Vitamin D content on storage (pH 5.0, 252 mg/ml water, age 8 weeks, Batch #9 (D3), #10 (D3 P)): 244 IU/ml | Vitamin D content on storage (pH 5.0, 252 mg/ml water, age 12 weeks, Batch #9 (D3), #10 (D3 P)): 201 IU/ml and 193 IU/ml | Vitamin D content on storage (pH 5.0, 252 mg/ml water, age 16 weeks, Batch #9 (D3), #10 (D3 P)): 123 IU/ml and 125 IU/ml | Vitamin D content on storage (pH 5.0, 390 mg/ml water (so in the source), age 0 weeks, Batch #11 (D3), #12 (D3 P)): 433 IU/ml and 437 IU/ml | Vitamin D content on storage (pH 5.0, 390 mg/ml water (so in the source), age 1 week, Batch #11 (D3), #12 (D3 P)): 404 IU/ml and 414 IU/ml | Vitamin D content on storage (pH 5.0, 390 mg/ml water (so in the source), age 2 weeks, Batch #11 (D3), #12 (D3 P)): 380 IU/ml and 383 IU/ml | Vitamin D content on storage (pH 5.0, 390 mg/ml water (so in the source), age 4 weeks, Batch #11 (D3), #12 (D3 P)): 364 IU/ml | Vitamin D content on storage (pH 5.0, 390 mg/ml water (so in the source), age 8 weeks, Batch #11 (D3), #12 (D3 P)): 306 IU/ml and 300 IU/ml | Vitamin D content on storage (pH 5.0, 390 mg/ml water (so in the source), age 12 weeks, Batch #11 (D3), #12 (D3 P)): 264 IU/ml and 263 IU/ml | Vitamin D content on storage (pH 5.0, 390 mg/ml water (so in the source), age 16 weeks, Batch #11 (D3), #12 (D3 P)): 188 IU/ml and 186 IU/ml | Vitamin D content on storage (pH 5.0, 390 mg/ml water, age 0 weeks, Batch #13 (D3), #14 (D3 P)): 593 IU/ml and 599 IU/ml | Vitamin D content on storage (pH 5.0, 390 mg/ml water, age 1 week, Batch #13 (D3), #14 (D3 P)): 573 IU/ml and 570 IU/ml | Vitamin D content on storage (pH 5.0, 390 mg/ml water, age 4 weeks, Batch #13 (D3), #14 (D3 P)): 554 IU/ml and 555 IU/ml | Vitamin D content on storage (pH 5.0, 390 mg/ml water, age 8 weeks, Batch #13 (D3), #14 (D3 P)): 510 IU/ml and 500 IU/ml | Vitamin D content on storage (pH 5.0, 390 mg/ml water, age 12 weeks, Batch #13 (D3), #14 (D3 P)): 525 IU/ml and 508 IU/ml | Vitamin D content on storage (pH 5.0, 390 mg/ml water, age 16 weeks, Batch #13 (D3), #14 (D3 P)): 490 IU/ml | Vitamin D content on storage (pH 5.0, 435 mg/ml water, age 0 weeks, Batch #15 (D3), #16 (D3 P)): 431 IU/ml and 433 IU/ml | Vitamin D content on storage (pH 5.0, 435 mg/ml water, age 1 week, Batch #15 (D3), #16 (D3 P)): 418 IU/ml | Vitamin D content on storage (pH 5.0, 435 mg/ml water, age 2 weeks, Batch #15 (D3), #16 (D3 P)): 395 IU/ml and 404 IU/ml | Vitamin D content on storage (pH 5.0, 435 mg/ml water, age 4 weeks, Batch #15 (D3), #16 (D3 P)): 403 IU/ml and 394 IU/ml | Vitamin D content on storage (pH 5.0, 435 mg/ml water, age 8 weeks, Batch #15 (D3), #16 (D3 P)): 364 IU/ml | Vitamin D content on storage (pH 5.0, 435 mg/ml water, age 12 weeks, Batch #15 (D3), #16 (D3 P)): 343 IU/ml and 338 IU/ml | Vitamin D content on storage (pH 5.0, 435 mg/ml water, age 16 weeks, Batch #15 (D3), #16 (D3 P)): 256 IU/ml
